From PubChem BioAssay AID248 (DTP/NCI, 2004)
Several values for one entry are separate records, joined by “and”; a condition that tells them apart may be missing. Equal entries are not always repeated. Toxic doses and inconclusive results are not listed.

Tested on: L1210 leukemia ip in BDF1 mice, survival T/C
Experiment: NCI In Vivo Anticancer Drug Screen. Data for tumor model L1210 Leukemia (intraperitoneal) in B6D2F1 (BDF1) mice
Conditions: endpoint: mean survival time, higher = longer survival
Summary of the method: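 Each compound was tested against a transplantable tumor grown in mice. The endpoint was survival, with treated animals benchmarked against vehicle controls as a simple ratio.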

[1] = dose: 50.0 mg/kg/injection, schedule: Q01DX009 (ip), vehicle: saline with Tween-80
[2] = dose: 100.0 mg/kg/injection, schedule: Q01DX009 (ip), vehicle: saline with Tween-80
[3] = dose: 100.0 mg/kg/injection, schedule: Q01DX001 (ip), vehicle: saline
[4] = dose: 100.0 mg/kg/injection, schedule: Q04DX003 (ip), vehicle: Klucel (hydroxypropylcellulose) (HPC)
[5] = dose: 200.0 mg/kg/injection, schedule: Q01DX001 (ip), vehicle: saline
[6] = dose: 200.0 mg/kg/injection, schedule: Q04DX003 (ip), vehicle: Klucel (hydroxypropylcellulose) (HPC)
[7] = dose: 400.0 mg/kg/injection, schedule: Q01DX001 (ip), vehicle: saline
[8] = dose: 400.0 mg/kg/injection, schedule: Q04DX003 (ip), vehicle: Klucel (hydroxypropylcellulose) (HPC)
[9] = dose: 100.0 mg/kg/injection, schedule: Q01DX009 (ip), vehicle: Klucel (hydroxypropylcellulose) (HPC)
[10] = dose: 200.0 mg/kg/injection, schedule: Q01DX009 (ip), vehicle: Klucel (hydroxypropylcellulose) (HPC)
[11] = dose: 400.0 mg/kg/injection, schedule: Q01DX009 (ip), vehicle: Klucel (hydroxypropylcellulose) (HPC)
[12] = dose: 100.0 mg/kg/injection, schedule: Q04DX002 (ip), vehicle: Klucel (hydroxypropylcellulose) (HPC)
[13] = dose: 200.0 mg/kg/injection, schedule: Q04DX002 (ip), vehicle: Klucel (hydroxypropylcellulose) (HPC)
[14] = dose: 400.0 mg/kg/injection, schedule: Q04DX002 (ip), vehicle: Klucel (hydroxypropylcellulose) (HPC)
[15] = dose: 100.0 mg/kg/injection, schedule: Q04DX003 (ip), vehicle: saline with Tween-80
[16] = dose: 200.0 mg/kg/injection, schedule: Q04DX003 (ip), vehicle: saline with Tween-80

CCN(CC)c1ccc(N=Nc2c(C)nc(N)nc2-c2ccccc2)cc1
T/C (dose: 5.0 mg/kg/injection, schedule: Q01DX001 (ip), vehicle: saline): 103 % of control
T/C (dose: 10.0 mg/kg/injection, schedule: Q01DX001 (ip), vehicle: saline): 96 % of control
T/C (dose: 20.0 mg/kg/injection, schedule: Q01DX001 (ip), vehicle: saline): 91 % of control
T/C (dose: 40.0 mg/kg/injection, schedule: Q01DX001 (ip), vehicle: saline): 92 % of control
T/C (dose: 80.0 mg/kg/injection, schedule: Q01DX001 (ip), vehicle: saline): 87 % of control

CCCN=C(N)c1ccc(NC(=O)c2ccc(C(=O)Nc3ccc(C(N)=NCCC)cc3)c(Cl)c2)cc1
T/C (dose: 1.25 mg/kg/injection, schedule: Q01DX Z (ip), vehicle: water): 98 % of control
T/C (dose: 2.5 mg/kg/injection, schedule: Q01DX Z (ip), vehicle: water): 101 % of control
T/C (dose: 6.5 mg/kg/injection, schedule: Q01DX Z (ip), vehicle: carboxymethylcellulose (CMC)): 155 % of control
T/C (dose: 13.0 mg/kg/injection, schedule: Q01DX Z (ip), vehicle: carboxymethylcellulose (CMC)): 121 % of control
T/C (dose: 62.0 mg/kg/injection, schedule: Q01DX Z (oral), vehicle: water): 104 % of control
T/C (dose: 125.0 mg/kg/injection, schedule: Q01DX Z (oral), vehicle: water): 110 % of control
T/C (dose: 250.0 mg/kg/injection, schedule: Q01DX Z (oral), vehicle: water): 104 % of control
T/C (dose: 500.0 mg/kg/injection, schedule: Q01DX Z (oral), vehicle: water): 104 % of control

ClCc1ccc(CCl)c(Cl)c1Cl
T/C (dose: 25.0 mg/kg/injection, schedule: Q01DX009 (ip), vehicle: saline with Tween-80): 105 % of control
T/C [1]: 97 % of control
T/C [2]: 93 % of control

O=C(O)/C=C\C(=O)Nc1ccc(Cc2ccc(NC(=O)/C=C\C(=O)O)cc2)cc1
T/C [3]: 115 % of control
T/C [4]: 95 % of control
T/C [5]: 103 % of control
T/C [6]: 100 % of control
T/C [7]: 103 % of control
T/C [8]: 97 % of control

O=NN(CCCl)C(=O)Nc1ccc2c(c1)OCO2
T/C (dose: 4.0 mg/kg/injection, schedule: Q01DX009 (ip), vehicle: other): 155 % of control
T/C (dose: 6.0 mg/kg/injection, schedule: Q01DX009 (ip), vehicle: other): 163 % of control
T/C (dose: 9.0 mg/kg/injection, schedule: Q01DX009 (ip), vehicle: other): 170 % of control
T/C (dose: 13.0 mg/kg/injection, schedule: Q01DX009 (ip), vehicle: other): 173 % of control
T/C (dose: 20.0 mg/kg/injection, schedule: Q01DX001 (ip), vehicle: other): 180 % of control
T/C (dose: 20.0 mg/kg/injection, schedule: Q01DX009 (ip), vehicle: other): 164 % of control
T/C (dose: 22.0 mg/kg/injection, schedule: Q01DX009 (ip), vehicle: carboxymethylcellulose (CMC)): 157 % of control
T/C (dose: 30.0 mg/kg/injection, schedule: Q01DX001 (ip), vehicle: other): 170 % of control
T/C (dose: 30.0 mg/kg/injection, schedule: Q01DX009 (ip), vehicle: other): 166 % of control and 185 % of control
T/C (dose: 44.0 mg/kg/injection, schedule: Q01DX009 (ip), vehicle: other): 104 % of control
T/C (dose: 66.0 mg/kg/injection, schedule: Q01DX001 (ip), vehicle: other): 226 % of control
T/C (dose: 88.0 mg/kg/injection, schedule: Q01DX001 (ip), vehicle: saline): 151 % of control
T/C (dose: 100.0 mg/kg/injection, schedule: Q01DX001 (ip), vehicle: carboxymethylcellulose (CMC)): 151 % of control
T/C (dose: 200.0 mg/kg/injection, schedule: Q01DX001 (ip), vehicle: carboxymethylcellulose (CMC)): 160 % of control

O=C(O)CCSCCSCCC(=O)O
T/C [9]: 95 % of control
T/C [10]: 90 % of control
T/C [11]: 100 % of control

CSc1ncnc2c1ncn2/N=C/C1OC(C)OCC1O (centres undefined)
T/C [4]: 93 % of control
T/C [6]: 98 % of control
T/C [8]: 98 % of control

COC(=O)C1CC2(CNc3ccccc32)CN1C (centres undefined)
T/C [4]: 90 % of control
T/C [6]: 89 % of control
T/C [8]: 89 % of control

CCOC(O)C(F)(F)F (centres undefined)
T/C (dose: 50.0 mg/kg/injection, schedule: Q01DX015 (ip), vehicle: saline): 93 % of control
T/C [3]: 98 % of control
T/C (dose: 100.0 mg/kg/injection, schedule: Q01DX009 (ip), vehicle: acetone): 103 % of control
T/C (dose: 100.0 mg/kg/injection, schedule: Q01DX015 (ip), vehicle: saline): 96 % of control
T/C [5]: 112 % of control
T/C (dose: 200.0 mg/kg/injection, schedule: Q01DX009 (ip), vehicle: acetone): 102 % of control
T/C (dose: 200.0 mg/kg/injection, schedule: Q01DX015 (ip), vehicle: saline): 88 % of control
T/C [7]: 102 % of control

CCn1ccc(=O)c2cc([N+](=O)[O-])ccc21
T/C [9]: 95 % of control
T/C [4]: 92 % of control
T/C [10]: 103 % of control
T/C [6]: 92 % of control
T/C [11]: 92 % of control
T/C [8]: 91 % of control

COc1ccc2cc1Oc1ccc(cc1)CC1c3c(cc(OC)c4c3Oc3cc5c(cc3O4)CCNC5C2)CCN1C (centres undefined)
T/C [12]: 98 % of control
T/C [13]: 98 % of control
T/C [14]: 91 % of control

O=[N+]([O-])c1ccc(-c2ccc(-c3ccccc3)cc2)cc1
T/C (dose: 100.0 mg/kg/injection, schedule: Q01DX001 (ip), vehicle: acetone): 98 % of control
T/C (dose: 100.0 mg/kg/injection, schedule: Q04DX003 (ip), vehicle: acetone): 91 % of control
T/C (dose: 200.0 mg/kg/injection, schedule: Q01DX001 (ip), vehicle: acetone): 95 % of control
T/C (dose: 200.0 mg/kg/injection, schedule: Q04DX003 (ip), vehicle: acetone): 86 % of control
T/C (dose: 400.0 mg/kg/injection, schedule: Q01DX001 (ip), vehicle: acetone): 92 % of control
T/C (dose: 400.0 mg/kg/injection, schedule: Q04DX003 (ip), vehicle: acetone): 89 % of control

Oc1ccccc1C=Nc1ccccc1S.[Co]
T/C (dose: 100.0 mg/kg/injection, schedule: Q01DX001 (ip), vehicle: other): 105 % of control
T/C (dose: 200.0 mg/kg/injection, schedule: Q01DX001 (ip), vehicle: other): 100 % of control
T/C (dose: 400.0 mg/kg/injection, schedule: Q01DX001 (ip), vehicle: other): 105 % of control

Cc1nc(N)sc1S(=O)(=O)F
T/C [3]: 96 % of control
T/C [15]: 89 % of control
T/C [5]: 97 % of control
T/C [16]: 97 % of control
T/C [7]: 102 % of control
T/C (dose: 400.0 mg/kg/injection, schedule: Q04DX003 (ip), vehicle: saline with Tween-80): 97 % of control

NC(=O)C[n+]1cccc(C(=O)Nc2ccc(Cl)cc2)c1
T/C [15]: 98 % of control
T/C [16]: 101 % of control

[CH3][Sb]1([Cl])[CH2]CCC[CH2]1
T/C (dose: 50.0 mg/kg/injection, schedule: Q04DX003 (ip), vehicle: saline): 97 % of control
T/C (dose: 100.0 mg/kg/injection, schedule: Q04DX003 (ip), vehicle: saline): 104 % of control
T/C (dose: 200.0 mg/kg/injection, schedule: Q04DX003 (ip), vehicle: saline): 104 % of control

CCSC1=C(N2CC2)C(=O)C(SCC)=C(N2CC2)C1=O
T/C (dose: 150.0 mg/kg/injection, schedule: Q04DX003 (ip), vehicle: saline): 96 % of control
T/C (dose: 225.0 mg/kg/injection, schedule: Q04DX003 (ip), vehicle: saline): 96 % of control

c1ccc(SCc2cccnc2)nc1
T/C [3]: 97 % of control
T/C [5]: 88 % of control
T/C [7]: 94 % of control

CC/C=C(CC)/C(=C/CC)CC
T/C [3]: 97 % of control
T/C (dose: 100.0 mg/kg/injection, schedule: Q01DX009 (ip), vehicle: saline): 98 % of control
T/C [5]: 105 % of control
T/C (dose: 200.0 mg/kg/injection, schedule: Q01DX009 (ip), vehicle: saline): 96 % of control
T/C [7]: 102 % of control

CC(C)OC(=O)Nc1ccc(C(F)(F)F)cc1
T/C [12]: 97 % of control and 100 % of control
T/C [13]: 88 % of control
T/C [14]: 103 % of control and 112 % of control

CC/C=C(\C)C1(CC)C(=O)N=C(N)NC1=O (centres undefined)
T/C (dose: 150.0 mg/kg/injection, schedule: Q01DX001 (ip), vehicle: saline): 105 % of control

C=CC1(O)CCCC1
T/C [1]: 100 % of control
T/C [2]: 107 % of control
T/C (dose: 200.0 mg/kg/injection, schedule: Q01DX009 (ip), vehicle: saline with Tween-80): 96 % of control
